Laboratory results published in US12655175B2, “C17, C20, and C21 substituted neuroactive steroids and their methods of use” (Sage Therapeutics, LLC, priority 2016, dated 2026).

Each compound was assayed against GABAA receptor (assay: Steroid inhibition of [35S]-TBPS binding). Conditions: rat brain cortical membranes, 3 nM [35S]-TBPS, in the presence of 5 mM GABA.
Method: Steroid Inhibition of TBPS Binding
Briefly, cortices are rapidly removed following decapitation of carbon dioxide-anesthetized Sprague-Dawley rats ([…]). The cortices are homogenized in 10 volumes of ice-cold 0.32 M sucrose using a glass/teflon homogenizer and centrifuged at 1500×g for 10 min at 4° C. The resultant supernatants are centrifuged at 10,000×g for 20 min at 4° C. to obtain the P2 pellets. The P2 pellets are resuspended in 200 mM NaCl/50 mM Na—K phosphate pH 7.4 buffer and centrifuged at 10,000×g for 10 min at 4° C. This washing procedure is repeated twice and the pellets are resuspended in 10 volumes of buffer. Aliquots ([…]) of the membrane suspensions are incubated with 3 nM [^35S]-TBPS and […] aliquots of test drug dissolved in dimethyl sulfoxide (DMSO) (final 0.5%) in the presence of 5 mM GABA. The incubation is brought to a final volume of 1.0 mL with buffer. […] Following a 90 min incubation at room temp, the assays are terminated by filtration through glass fiber filters (Schleicher and Schuell No. 32) using a cell harvester (Brandel) and rinsed three times with ice-cold buffer. Filter bound radioactivity is measured by liquid scintillation spectrometry. Non-linear curve fitting of the overall data for each drug averaged for each concentration is done using Prism (GraphPad).
Various compounds are or can be screened to determine their potential as modulators of [^35S]-TBPS binding in vitro. These assays are or can be performed in accordance with the above discussed procedures.

`CO[C@H]1C[C@@]2(C)[C@@H](CC[C@H]3[C@@H]4CC[C@H]([N+](=O)[O-])[C@@]4(C)CC(=O)[C@@H]32)C[C@@H]1O` [Compound 121] and `CCO[C@H]1C[C@@]2(C)[C@@H](CC[C@@H]3[C@@H]2[C@@H](O)C[C@]2(C)[C@@H]([N+](=O)[O-])CC[C@@H]32)C[C@@H]1O` [Compound 122] fall in the same range of IC50: 100 to 500 nM for the first, 100 to 500 nM for the second.

`CN([C@H]1CC[C@H]2[C@@H]3CC[C@H]4C[C@](C)(O)CC[C@]4(C)[C@H]3CC[C@]12C)S(C)(=O)=O` [Compound 98] and `C[C@@]1(O)CC[C@@]2(C)[C@@H](CC[C@@H]3[C@@H]2CC[C@]2(C)[C@@H](NS(C)(=O)=O)CC[C@@H]32)C1` [Compound 97] cannot be ordered by IC50: over 500 nM for the first, over 500 nM for the second.

First: CN(C(=O)[C@H]1CC[C@H]2[C@@H]3CC[C@@H]4C[C@](C)(O)CC[C@@H]4[C@H]3CC[C@]12C)C1CCCCC1 [Compound 9]
Second: C[C@@]1(O)CC[C@H]2[C@H](CC[C@@H]3[C@@H]2CC[C@]2(C)[C@@H](C(=O)N4CCCCC4)CC[C@@H]32)C1 [Compound 5]
The IC50 of the first is higher: 100 to 500 nM for the first, 50 to 100 nM for the second. The second is the more potent here.

Compared with `C[C@@]1(O)CC[C@H]2[C@H](CC[C@@H]3[C@@H]2CC[C@]2(C)[C@@H](C(=O)CNc4cccc(F)c4)CC[C@@H]32)C1` [Compound 41], `C[C@@]1(O)CC[C@H]2[C@H](CC[C@@H]3[C@@H]2CC[C@]2(C)[C@@H](C(=O)Nc4ccc(F)cc4C#N)CC[C@@H]32)C1` [Compound 37] is higher in IC50: under 10 nM for the first, 10 to 50 nM for the second. The first is the more potent here.

`CC(=O)N[C@H]1CC[C@H]2[C@@H]3CC[C@H]4C[C@](C)(O)CC[C@]4(C)[C@H]3CC[C@]12C` [Compound 95] and `C[C@@]1(O)CC[C@@]2(C)[C@@H](CC[C@@H]3[C@@H]2CC[C@]2(C)[C@@H](NC(=O)c4ccccc4)CC[C@@H]32)C1` [Compound 94] cannot be ordered by IC50: over 500 nM for the first, over 500 nM for the second.

First: CN(CC(=O)[C@H]1CC[C@H]2[C@@H]3CC[C@H]4C[C@](C)(O)CC[C@@H]4[C@H]3CC[C@]12C)c1ccccc1 [Compound 63]
Second: CCOC[C@@]1(O)CC[C@H]2[C@@H](CC[C@@H]3[C@@H]2CC[C@]2(C)[C@@H](C(=O)CN(C)c4ccccc4)CC[C@@H]32)C1 [Compound 85]
The IC50 of the first is lower: 100 to 500 nM for the first, over 500 nM for the second. The first is the more potent here.

First: COC[C@]12CC[C@](O)(C(F)(F)F)C[C@H]1CC[C@H]1[C@@H]3CC[C@H](C(=O)N(C)Cc4ccccc4)[C@@]3(C)CC[C@@H]12 [Compound 79]
Second: COC[C@]12CC[C@@](C)(O)C[C@H]1CC[C@H]1[C@@H]3CC[C@H](C(=O)CNc4ccccc4)[C@@]3(C)CC[C@@H]12 [Compound 76]
The IC50 of the first is higher: 100 to 500 nM for the first, under 10 nM for the second. The second is the more potent here.

Compared with `C[C@@]1(O)CC[C@@]2(C)[C@@H](CC[C@@H]3[C@@H]2CC[C@]2(C)[C@@H](OCc4ccccc4)CC[C@@H]32)C1` [Compound 112], `C[C@]12CC[C@](O)(C(F)(F)F)C[C@@H]1CC[C@@H]1[C@@H]2CC[C@]2(C)[C@@H](C(=O)CNc3ccccc3)CC[C@@H]12` [Compound 73] is lower in IC50: over 500 nM for the first, 50 to 100 nM for the second. The second is the more potent here.

`C[C@@]1(O)CC[C@H]2[C@H](CC[C@@H]3[C@@H]2CC[C@]2(C)[C@@H](c4ccccc4)CC[C@@H]32)C1` [Compound 101] and `C[C@H](NC(=O)[C@H]1CC[C@H]2[C@@H]3CC[C@@H]4C[C@](C)(O)CC[C@@H]4[C@H]3CC[C@]12C)c1ccccc1` [Compound 27] fall in the same range of IC50: 100 to 500 nM for the first, 100 to 500 nM for the second.

Compared with `CCOC[C@@]1(O)CC[C@H]2[C@H](CC[C@@H]3[C@@H]2CC[C@]2(C)[C@@H](C(=O)N4CCc5ccccc5C4)CC[C@@H]32)C1` [Compound 44], `C[C@@]1(O)CC[C@H]2[C@H](CC[C@@H]3[C@@H]2CC[C@]2(C)[C@@H](C(=O)NCc4ccccn4)CC[C@@H]32)C1` [Compound 15] is higher in IC50: 50 to 100 nM for the first, 100 to 500 nM for the second. The first is the more potent here.

`CN(Cc1ccccn1)C(=O)[C@H]1CC[C@H]2[C@@H]3CC[C@@H]4C[C@](C)(O)CC[C@@H]4[C@H]3CC[C@]12C` [Compound 22] and `C[C@@]1(O)CC[C@H]2[C@H](CC[C@@H]3[C@@H]2CC[C@]2(C)[C@@H](C(=O)NCc4cccnc4)CC[C@@H]32)C1` [Compound 12] cannot be ordered by IC50: over 500 nM for the first, over 500 nM for the second.

`C[C@@]1(O)CC[C@H]2[C@H](CC[C@@H]3[C@@H]2CC[C@]2(C)[C@@H](C4CCOCC4)CC[C@@H]32)C1` [Compound 107] was tested, and the IC50 was over 500 nM.
